ChEMBL document CHEMBL5107989, “Design, synthesis and activity evaluation of isopropylsulfonyl-substituted 2,4- diarylaminopyrimidine derivatives as FAK inhibitors for the potential treatment of pancreatic cancer” (Eur J Med Chem, 2022)

Experiments:
MIA PaCa-2 = assay: cells; conditions: Homo sapiens, MIA PaCa-2, 72 h
Description: Antiproliferative activity against human MIA PaCa-2 cells harboring KRAS,TP53,CDKN2A and DPC4/SMAD4 mutations assessed as inhibition of cell growth incubated for 72 hrs by CCK-8 assay

KM3/BTZ = assay: cells; conditions: Homo sapiens, 72 h
Description: Antiproliferative activity against bortezomib- resistant human KM3/BTZ cells assessed as inhibition of cell growth incubated for 72 hrs by CCK-8 assay

[1] = Cytotoxicity against human L02 cells assessed as inhibition of cell growth incubated for 72 hrs by CCK-8 assay; type: toxicity, cell-based
ASPC1 = assay: cells; conditions: Homo sapiens, ASPC1, 72 h
Description: Antiproliferative activity against human ASPC1 cells harboring KRAS,TP53,CDKN2A and DPC4/SMAD4 mutations assessed as inhibition of cell growth incubated for 72 hrs by CCK-8 assay

Raji = assay: cells; conditions: Homo sapiens, 72 h
Description: Antiproliferative activity against human Raji cells assessed as inhibition of cell growth incubated for 72 hrs by CCK-8 assay

NCI-H1975 = assay: cells; conditions: Homo sapiens, NCI-H1975, 72 h
Description: Antiproliferative activity against gefitinib-resistant human NCI-H1975 cells assessed as inhibition of cell growth incubated for 72 hrs by CCK-8 assay

Focal adhesion kinase 1 = Focal adhesion kinase 1 (Homo sapiens, UniProt Q05397); assay: Inhibition of recombinant human FAK (393 to 698 residues) using poly (4:1 Glu, Tyr) peptide as substrate incubated for 60 mins in presence of ATP by ADP-Glo reagent based luminescent assay
Sequence of Focal adhesion kinase 1 (Q05397 whole entry, the tested form may be a part): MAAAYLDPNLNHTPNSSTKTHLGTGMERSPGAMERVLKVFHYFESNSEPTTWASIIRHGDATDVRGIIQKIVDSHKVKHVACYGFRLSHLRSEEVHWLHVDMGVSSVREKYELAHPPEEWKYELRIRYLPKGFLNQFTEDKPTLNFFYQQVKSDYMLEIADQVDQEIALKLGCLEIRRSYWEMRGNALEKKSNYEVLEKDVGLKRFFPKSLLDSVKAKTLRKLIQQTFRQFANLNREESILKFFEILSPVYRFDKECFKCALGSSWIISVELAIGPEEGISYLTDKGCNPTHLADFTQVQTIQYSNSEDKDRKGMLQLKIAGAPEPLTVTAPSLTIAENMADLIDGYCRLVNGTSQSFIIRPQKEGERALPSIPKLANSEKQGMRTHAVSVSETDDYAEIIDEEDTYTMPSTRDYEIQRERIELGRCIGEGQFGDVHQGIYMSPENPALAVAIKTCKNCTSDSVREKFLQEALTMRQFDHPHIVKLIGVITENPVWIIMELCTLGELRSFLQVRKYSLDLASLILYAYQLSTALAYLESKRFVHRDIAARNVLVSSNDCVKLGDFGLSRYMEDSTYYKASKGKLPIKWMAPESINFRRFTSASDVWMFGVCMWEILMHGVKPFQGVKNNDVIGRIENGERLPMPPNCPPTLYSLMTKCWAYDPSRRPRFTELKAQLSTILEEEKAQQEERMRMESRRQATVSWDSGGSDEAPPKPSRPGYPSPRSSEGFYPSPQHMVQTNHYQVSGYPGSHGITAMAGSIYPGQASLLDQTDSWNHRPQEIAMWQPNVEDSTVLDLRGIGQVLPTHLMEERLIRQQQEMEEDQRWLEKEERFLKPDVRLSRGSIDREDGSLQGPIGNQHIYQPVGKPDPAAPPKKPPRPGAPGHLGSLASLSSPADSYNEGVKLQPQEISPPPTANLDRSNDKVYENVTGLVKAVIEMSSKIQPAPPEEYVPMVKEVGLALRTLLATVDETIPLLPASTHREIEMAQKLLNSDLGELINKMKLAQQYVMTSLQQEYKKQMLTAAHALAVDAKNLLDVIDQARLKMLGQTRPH

SMILES	IC50 (MIA PaCa-2) [µM]	IC50 (KM3/BTZ) [µM]	IC50 at 72 h [1] [µM]	IC50 (ASPC1) [µM]	IC50 (Raji) [µM]	IC50 (NCI-H1975) [µM]	IC50 (Focal adhesion kinase 1) [µM]
CC(C)S(=O)(=O)c1ccccc1Nc1nc(Nc2ccc(CN3CCC(C(=O)O)CC3)cc2)ncc1Cl	1.13	1.02	1.27	0.472	> 10	2.81	–
CCOP(=O)(Cc1ccc(Nc2ncc(Cl)c(Nc3ccccc3S(=O)(=O)C(C)C)n2)cc1)OCC	4.71	> 10	7.93	2.98	1.67	2.95	0.000315
CC(C)S(=O)(=O)c1ccccc1Nc1nc(Nc2ccc(CN3CCC(CO)CC3)cc2)ncc1Cl	0.235	0.159	0.192	0.139	1.22	6.29	–
CCOC(=O)C1CCN(c2ccc(Nc3ncc(Cl)c(Nc4ccccc4S(=O)(=O)C(C)C)n3)cc2)CC1	0.0126	> 10	0.981	0.451	> 10	9.64	–
CC(C)S(=O)(=O)c1ccccc1Nc1nc(Nc2ccc(CN3CCC(C(=O)NCCO)CC3)cc2)ncc1Cl	0.459	0.497	0.978	0.288	> 10	0.494	–
CC(C)S(=O)(=O)c1ccccc1Nc1nc(Nc2ccc(CN3CCC(C(=O)NCCCCCC(=O)NO)CC3)cc2)ncc1Cl	1.23	2.89	2.99	6.98	> 10	7.86	–
CC(C)S(=O)(=O)c1ccccc1Nc1nc(Nc2ccc(NC(=O)CN3CCC(C(=O)NCCCCCC(=O)NO)CC3)cc2)ncc1Cl	1.23	> 10	5.05	3.18	> 10	> 10	–
COC(=O)CCCCCNC(=O)C1CCN(c2ccc(Nc3ncc(Cl)c(Nc4ccccc4S(=O)(=O)C(C)C)n3)cc2)CC1	0.622	9.77	1.98	1.92	> 10	7.42	–
CC(C)S(=O)(=O)c1ccccc1Nc1nc(Nc2ccc(CN3CCSCC3)cc2)ncc1Cl	0.452	2.49	1.14	0.735	2.21	3.51	–
CC(C)S(=O)(=O)c1ccccc1Nc1nc(Nc2ccc(NC(=O)CN3CCC(C(=O)O)CC3)cc2)ncc1Cl	5.05	2.16	2.32	3.68	3.25	7.51	–
CC(C)S(=O)(=O)c1ccccc1Nc1nc(Nc2ccc(N3CCC(C(=O)NCCCCCC(=O)NO)CC3)cc2)ncc1Cl	1.17	> 10	0.755	2.39	> 10	4.15	–
COC(=O)CCCCCNC(=O)C1CCN(CC(=O)Nc2ccc(Nc3ncc(Cl)c(Nc4ccccc4S(=O)(=O)C(C)C)n3)cc2)CC1	1.23	> 10	7.01	5.94	> 10	3.82	–
CCOC(=O)C1CCN(Cc2ccc(Nc3ncc(Cl)c(Nc4ccccc4S(=O)(=O)C(C)C)n3)cc2)CC1	7.09	0.262	0.453	0.295	2.96	2.08	–
CCC(C)C(CO)NC(=O)C1CCN(Cc2ccc(Nc3ncc(Cl)c(Nc4ccccc4S(=O)(=O)C(C)C)n3)cc2)CC1 (stereo not given)	1.91	2.58	1.39	0.394	> 10	8.2	–
CC(C)S(=O)(=O)c1ccccc1Nc1nc(Nc2ccc(OCC(=O)N3CCOCC3)cc2)ncc1Cl	0.714	1.61	0.368	0.259	3.27	0.347	–
CNC(=O)c1ccccc1Nc1nc(Nc2ccc(N3CCOCC3)cc2OC)ncc1Cl	5.23	4.39	5.21	4.82	> 10	> 10	–
CCOC(=O)C1CCN(CC(=O)Nc2ccc(Nc3ncc(Cl)c(Nc4ccccc4S(=O)(=O)C(C)C)n3)cc2)CC1	5.27	2.31	1.22	0.989	1.32	2.92	–
CC(C)S(=O)(=O)c1ccccc1Nc1nc(Nc2ccc(SCCCN3CCOCC3)cc2)ncc1Cl	4.75	> 10	8.65	3.52	> 10	2.88	–
CC(C)S(=O)(=O)c1ccccc1Nc1nc(Nc2ccc(N3CCC(C(=O)O)CC3)cc2)ncc1Cl	2.12	3.68	1.51	0.916	1.48	2.71	–
